According to patent publication US20230257372A1 (CHONG KUN DANG PHARMACEUTICAL CORP., priority 2020, published 2023):
Like-named read-outs stand apart in the source and are kept apart here.

Columns and labels:
human recombinant HDAC1 = target: T1, human recombinant HDAC1 (Homo sapiens, UniProt Q13547); assay: HDAC1 enzyme activity inhibition (HDAC Fluorimetric Drug Discovery Kit); type: biochemical; conditions: read-out: HDAC1
T1 construct: purchased Enzo Life Science, Inc. BML-SE456
In short: (§1)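 Fluorimetric deacetylase read-out: after 30 min with Developer II following a 60 min, 30° C reaction of recombinant enzyme ([…]) with 10 μM substrate, across five-fold serial compound dilutions.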

human recombinant HDAC6 = target: T2, human recombinant HDAC6 (Homo sapiens, UniProt Q9UBN7); assay: HDAC6 enzyme activity inhibition (HDAC Fluorimetric Drug Discovery Kit); type: biochemical
T2 construct: purchased Calbiochem Inc. 382180
T2 sequence (Q9UBN7 1-1215): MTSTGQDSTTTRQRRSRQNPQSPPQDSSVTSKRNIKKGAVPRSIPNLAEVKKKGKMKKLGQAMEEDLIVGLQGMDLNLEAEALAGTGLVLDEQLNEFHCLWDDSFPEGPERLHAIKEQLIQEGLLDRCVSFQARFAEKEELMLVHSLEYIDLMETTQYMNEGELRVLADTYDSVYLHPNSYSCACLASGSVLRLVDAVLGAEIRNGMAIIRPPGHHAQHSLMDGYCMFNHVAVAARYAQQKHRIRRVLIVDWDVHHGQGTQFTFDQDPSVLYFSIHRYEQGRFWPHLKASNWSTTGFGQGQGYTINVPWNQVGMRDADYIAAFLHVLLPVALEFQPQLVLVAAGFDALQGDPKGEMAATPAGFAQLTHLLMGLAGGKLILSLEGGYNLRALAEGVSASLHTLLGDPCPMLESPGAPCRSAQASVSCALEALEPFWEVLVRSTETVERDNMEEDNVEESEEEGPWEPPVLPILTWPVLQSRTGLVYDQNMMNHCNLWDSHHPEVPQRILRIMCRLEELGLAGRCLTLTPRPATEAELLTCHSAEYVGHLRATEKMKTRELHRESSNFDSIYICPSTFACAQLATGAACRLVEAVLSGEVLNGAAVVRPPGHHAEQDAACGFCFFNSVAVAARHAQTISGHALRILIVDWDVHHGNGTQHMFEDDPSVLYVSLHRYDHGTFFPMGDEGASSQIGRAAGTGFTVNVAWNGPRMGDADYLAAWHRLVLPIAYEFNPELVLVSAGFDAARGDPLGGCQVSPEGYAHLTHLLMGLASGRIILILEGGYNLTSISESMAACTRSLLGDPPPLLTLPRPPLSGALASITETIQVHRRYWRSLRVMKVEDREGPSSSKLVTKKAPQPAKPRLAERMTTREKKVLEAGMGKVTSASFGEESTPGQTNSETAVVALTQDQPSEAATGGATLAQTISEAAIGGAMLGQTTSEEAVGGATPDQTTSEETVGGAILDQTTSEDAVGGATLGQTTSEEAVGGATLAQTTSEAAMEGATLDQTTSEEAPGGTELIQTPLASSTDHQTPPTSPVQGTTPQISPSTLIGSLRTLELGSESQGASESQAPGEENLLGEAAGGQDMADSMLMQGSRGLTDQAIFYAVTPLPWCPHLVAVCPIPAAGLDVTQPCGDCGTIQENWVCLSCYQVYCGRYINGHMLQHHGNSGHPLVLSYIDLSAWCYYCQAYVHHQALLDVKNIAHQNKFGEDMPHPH
In short: as §1

[1] = human recombinant HDAC1, IC50 calculated with GraphPad Prism
[2] = human recombinant HDAC6, IC50 calculated with GraphPad Prism
[3] = human recombinant HDAC1, Fluor de Lys substrate, 30° C. 60 minutes
[4] = human recombinant HDAC6, same protocol as HDAC1

T1 sequence (Q13547 whole entry): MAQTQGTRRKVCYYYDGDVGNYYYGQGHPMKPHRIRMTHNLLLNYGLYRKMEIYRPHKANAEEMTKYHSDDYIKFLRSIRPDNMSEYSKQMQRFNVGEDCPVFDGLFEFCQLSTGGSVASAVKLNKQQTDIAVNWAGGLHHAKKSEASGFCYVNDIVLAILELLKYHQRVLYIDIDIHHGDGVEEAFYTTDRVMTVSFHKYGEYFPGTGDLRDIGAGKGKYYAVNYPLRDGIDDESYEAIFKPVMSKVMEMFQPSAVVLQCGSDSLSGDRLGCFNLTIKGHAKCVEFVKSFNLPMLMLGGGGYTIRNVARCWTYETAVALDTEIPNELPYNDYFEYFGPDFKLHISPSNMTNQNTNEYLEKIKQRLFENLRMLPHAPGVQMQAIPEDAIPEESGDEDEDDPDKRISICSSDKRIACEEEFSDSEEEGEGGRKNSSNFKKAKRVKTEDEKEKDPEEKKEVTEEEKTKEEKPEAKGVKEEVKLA

| SMILES | IC50 (human recombinant HDAC1; [1]) [µM] | HDAC6 selectivity (fold) (human recombinant HDAC6; HDAC1 IC50 / HDAC6 IC50) | IC50 (human recombinant HDAC6; [2]) [µM] | IC50 (human recombinant HDAC1; [3]) [µM] | HDAC6 selectivity (fold) (human recombinant HDAC6; HDAC6 over HDAC1) | IC50 (human recombinant HDAC6; [4]) [µM] |
| --- | --- | --- | --- | --- | --- | --- |
| FC(F)c1nnc(-c2ccc(Cn3cc(C4=CCCCC4)nn3)nc2)o1 [Compound 3879, 2-(6-((4-(cyclohex-1-ene-1-yl)-1H-1,2,3-triazol-1-yl)methyl)pyridin-3-yl)-5-(difluoromethyl)-1,3,4-oxadiazole] | > 50 | 773 | 0.0646 | – | – | – |
| CN1Cc2ccc(-c3cn(Cc4ccc(-c5nnc(C(F)F)o5)cn4)nn3)cc2C1 [Compound 4540, 2-(difluoromethyl)-5-(6-((4-(2-methylisoindolin-5-yl)-1H-1,2,3-triazol-1-yl)methyl)pyridin-3-yl)-1,3,4-oxadiazole] | – | – | – | > 50 | 583 | 0.0857 |
| FC(F)c1nnc(-c2ccc(Cn3cc(-c4ccc5c(c4)CN(C4COC4)C5)nn3)nc2)o1 [Compound 4543, 2-(difluoromethyl)-5-(6-((4-(2-(oxetan-3-yl)isoindolin-5-yl)-1H-1,2,3-triazol-1-yl)methyl)pyridin-3-yl)-1,3,4-oxadiazole] | – | – | – | > 50 | 1326 | 0.0377 |
| Fc1c(-c2cn(Cc3ccc(-c4nnc(C(F)F)o4)cn3)nn2)cccc1N1CCN(CC2CC(F)(F)C2)CC1 [Compound 4601, 2-(6-((4-(3-(4-((3,3-difluorocyclobutyl)methyl)piperazin-1-yl)-2-fluorophenyl)-1H-1,2,3-triazol-1-yl)methyl)pyridin-3-yl)-5-(difluoromethyl)-1,3,4-oxadiazole] | – | – | – | > 50 | 1392 | 0.0359 |
| CN1CCN(Cc2cccc(-c3cn(Cc4ccc(-c5nnc(C(F)F)o5)cn4)nn3)c2)CC1 [Compound 3917, 2-(difluoromethyl)-5-(6-((4-(3-((4-methylpiperazin-1-yl)methyl)phenyl)-1H-1,2,3-triazol-1-yl)methyl)pyridin-3-yl)-1,3,4-oxadiazole] | > 50 | 1524 | 0.0328 | – | – | – |
| FC(F)c1nnc(-c2ccc(Cn3cc(C4(F)COC4)nn3)nc2)o1 [Compound 4280, 2-(difluoromethyl)-5-(6-((4-(3-fluorooxetan-3-yl)-1H-1,2,3-triazol-1-yl)methyl)pyridin-3-yl)-1,3,4-oxadiazole] | > 50 | 292 | 0.171 | – | – | – |
| Fc1cc(-c2nnc(C(F)F)o2)cnc1Cn1cc(-c2ccc(CN3CCCC3)c(Cl)c2)nn1 [Compound 19096] | – | – | – | > 50 | 529 | 0.0944 |
| CC1CCN(Cc2ccc(-c3cn(Cc4ccc(-c5nnc(C(F)F)o5)cc4F)nn3)cn2)CC1 [Compound 18177, 2-(difluoromethyl)-5-(3-fluoro-4-((4-(6-((4-methylpiperidin-1-yl)methyl)pyridin-3-yl)-1H-1,2,3-triazol-1-yl)methyl)phenyl)-1,3,4-oxadiazole] | – | – | – | > 50 | 784 | 0.0637 |
| CCN1Cc2cccc(-c3cn(Cc4ccc(-c5nnc(C(F)F)o5)cn4)nn3)c2C1 [Compound 4596, 2-(difluoromethyl)-5-(6-((4-(2-ethylisoindolin-4-yl)-1H-1,2,3-triazol-1-yl)methyl)pyridin-3-yl)-1,3,4-oxadiazole] | – | – | – | > 50 | 782 | 0.0639 |
| Fc1cc(-c2nnc(C(F)F)o2)ccc1Cn1cc(-c2cccc(NC3COC3)c2)nn1 [Compound 4332, N-(3-(1-(4-(5-(difluoromethyl)-1,3,4-oxadiazol-2-yl)-2-fluorobenzyl)-1H-1,2,3-triazol-4-yl)phenyl)oxetan-3-amine] | > 50 | 1201 | 0.0416 | – | – | – |
| NC1(C(=O)Nc2cccc(-c3cn(Cc4ccc(-c5nnc(C(F)F)o5)cn4)nn3)c2)CCC1 [Compound 4498, 1-amino-N-(3-(1-((5-(5-(difluoromethyl)-1,3,4-oxadiazol-2-yl)pyridin-2-yl)methyl)-1H-1,2,3-triazol-4-yl)phenyl)cyclobutan-1-carboxamide] | – | – | – | > 50 | 1628 | 0.0307 |
| Fc1cc(-c2nnc(C(F)F)o2)ccc1Cn1cc(-c2ccc(CN3CC[C@@H](F)C3)s2)nn1 [Compound 17917] | – | – | – | > 50 | 881 | 0.0567 |
| CCN1CCN(c2ccc(F)c(-c3cn(Cc4ccc(-c5nnc(C(F)F)o5)cc4)nn3)c2)CC1 [Compound 4452, 2-(difluoromethyl)-5-(4-((4-(5-(4-ethylpiperazin-1-yl)-2-fluorophenyl)-1H-1,2,3-triazol-1-yl)methyl)phenyl)-1,3,4-oxadiazole] | > 50 | 2463 | 0.0203 | – | – | – |
| Fc1cc(-c2nnc(C(F)F)o2)ccc1Cn1cc(-c2ccc3c(c2)CCN(C2CN(C4COC4)C2)C3)nn1 [Compound 4395, 2-(difluoromethyl)-5-(3-fluoro-4-((4-(2-(1-(oxetan-3-yl)azetidin-3-yl)-1,2,3,4-tetrahydroisoquinolin-6-yl)-1H-1,2,3-triazol-1-yl)methyl)phenyl)-1,3,4-oxadiazole] | > 50 | 1024 | 0.0488 | – | – | – |
| Fc1cc(-c2nnc(C(F)F)o2)ccc1Cn1cc(-c2ccc(CN3CCCCC3)cc2)nn1 [Compound 4610, 2-(difluoromethyl)-5-(3-fluoro-4-((4-(4-(piperidin-1-ylmethyl)phenyl)-1H-1,2,3-triazol-1-yl)methyl)phenyl)-1,3,4-oxadiazole] | – | – | – | > 50 | 3496 | 0.0143 |
| FC(F)c1nnc(-c2ccc(Cn3cc(C4CCN(C5COC5)CC4)nn3)nc2)o1 [Compound 3809, 2-(difluoromethyl)-5-(6-((4-(1-(oxetan-3-yl)piperidin-4-yl)-1H-1,2,3-triazol-1-yl)methyl)pyridin-3-yl)-1,3,4-oxadiazole] | > 50 | 253 | 0.198 | – | – | – |
| FC(F)c1nnc(-c2ccc(Cn3cc(-c4cccnc4)nn3)nc2)o1 [Compound 3835, 2-(difluoromethyl)-5-(6-((4-(pyridin-3-yl)-1H-1,2,3-triazol-1-yl)methyl)pyridin-3-yl)-1,3,4-oxadiazole] | > 50 | 1170 | 0.0427 | – | – | – |
| CN1CCN(c2cccc(-c3cn(Cc4ncc(-c5nnc(C(F)F)o5)cc4F)nn3)c2)CC1 [Compound 18924, 2-(difluoromethyl)-5-(5-fluoro-6-((4-(3-(4-methylpiperazin-1-yl)phenyl)-1H-1,2,3-triazol-1-yl)methyl)pyridin-3-yl)-1,3,4-oxadiazole] | – | – | – | > 50 | 625 | 0.08 |
| Fc1cc(-c2nnc(C(F)F)o2)ccc1Cn1cc(-c2cccc3c2CN(C2CCC2)C3)nn1 [Compound 4537, 2-(4-((4-(2-cyclobutylisoindolin-4-yl)-1H-1,2,3-triazol-1-yl)methyl)-3-fluorophenyl)-5-(difluoromethyl)-1,3,4-oxadiazole] | – | – | – | > 50 | 657 | 0.076 |
| CC1CCN(Cc2ccc(-c3cn(Cc4ccc(-c5nnc(C(F)F)o5)cc4F)nn3)cc2)CC1 [Compound 4611, 2-(difluoromethyl)-5-(3-fluoro-4-((4-(4-((4-methylpiperidin-1-yl)methyl)phenyl)-1H-1,2,3-triazol-1-yl)methyl)phenyl)-1,3,4-oxadiazole] | – | – | – | > 50 | 2793 | 0.0179 |
